Here are results for seven molecules from patent US9340590B2 (priority 2011, dated 2016).

Common to all, as to experiment: cell-based
In one assay the target is hNav1.7 (Homo sapiens, UniProt Q15858). It is filed as cell-based. Particulars: IonWorks Quattro, hNav1.7, read-out: IWQ Use Nav1.7. On the technique in general: Patch clamp records ionic current or voltage across a cell membrane.
The next assay concerns the target hNav1.3 (Homo sapiens, UniProt Q9NY46). Particulars: IonWorks Quattro, hNav1.3, read-out: IWQ Use Nav1.3.
Another assay has as its target hNav1.5 (Homo sapiens, UniProt Q14524). To be noted: IonWorks Quattro, hNav1.5, read-out: IWQ Use Nav1.5.

SMILES strings stand for the structures. Read-outs that look alike come from different tables or passages of the source. Positions of bridges follow the written chain, without caps; N, C: chain ends. Non-standard residues stand in square brackets, D forms with d. Residues, ends and D or L forms follow the SMILES beside them. Gly(cPent) = N[C@H](C(=O)O)C1CCCC1; 3Pal = N[C@@H](Cc1cccnc1)C(=O)O; 2Thi = N[C@@H](Cc1cccs1)C(=O)O; Chg = N[C@H](C(=O)O)C1CCCCC1; hLeu = CC(C)CC[C@H](N)C(=O)O

Chain of hNav1.7 (Q15858 whole entry, looked up): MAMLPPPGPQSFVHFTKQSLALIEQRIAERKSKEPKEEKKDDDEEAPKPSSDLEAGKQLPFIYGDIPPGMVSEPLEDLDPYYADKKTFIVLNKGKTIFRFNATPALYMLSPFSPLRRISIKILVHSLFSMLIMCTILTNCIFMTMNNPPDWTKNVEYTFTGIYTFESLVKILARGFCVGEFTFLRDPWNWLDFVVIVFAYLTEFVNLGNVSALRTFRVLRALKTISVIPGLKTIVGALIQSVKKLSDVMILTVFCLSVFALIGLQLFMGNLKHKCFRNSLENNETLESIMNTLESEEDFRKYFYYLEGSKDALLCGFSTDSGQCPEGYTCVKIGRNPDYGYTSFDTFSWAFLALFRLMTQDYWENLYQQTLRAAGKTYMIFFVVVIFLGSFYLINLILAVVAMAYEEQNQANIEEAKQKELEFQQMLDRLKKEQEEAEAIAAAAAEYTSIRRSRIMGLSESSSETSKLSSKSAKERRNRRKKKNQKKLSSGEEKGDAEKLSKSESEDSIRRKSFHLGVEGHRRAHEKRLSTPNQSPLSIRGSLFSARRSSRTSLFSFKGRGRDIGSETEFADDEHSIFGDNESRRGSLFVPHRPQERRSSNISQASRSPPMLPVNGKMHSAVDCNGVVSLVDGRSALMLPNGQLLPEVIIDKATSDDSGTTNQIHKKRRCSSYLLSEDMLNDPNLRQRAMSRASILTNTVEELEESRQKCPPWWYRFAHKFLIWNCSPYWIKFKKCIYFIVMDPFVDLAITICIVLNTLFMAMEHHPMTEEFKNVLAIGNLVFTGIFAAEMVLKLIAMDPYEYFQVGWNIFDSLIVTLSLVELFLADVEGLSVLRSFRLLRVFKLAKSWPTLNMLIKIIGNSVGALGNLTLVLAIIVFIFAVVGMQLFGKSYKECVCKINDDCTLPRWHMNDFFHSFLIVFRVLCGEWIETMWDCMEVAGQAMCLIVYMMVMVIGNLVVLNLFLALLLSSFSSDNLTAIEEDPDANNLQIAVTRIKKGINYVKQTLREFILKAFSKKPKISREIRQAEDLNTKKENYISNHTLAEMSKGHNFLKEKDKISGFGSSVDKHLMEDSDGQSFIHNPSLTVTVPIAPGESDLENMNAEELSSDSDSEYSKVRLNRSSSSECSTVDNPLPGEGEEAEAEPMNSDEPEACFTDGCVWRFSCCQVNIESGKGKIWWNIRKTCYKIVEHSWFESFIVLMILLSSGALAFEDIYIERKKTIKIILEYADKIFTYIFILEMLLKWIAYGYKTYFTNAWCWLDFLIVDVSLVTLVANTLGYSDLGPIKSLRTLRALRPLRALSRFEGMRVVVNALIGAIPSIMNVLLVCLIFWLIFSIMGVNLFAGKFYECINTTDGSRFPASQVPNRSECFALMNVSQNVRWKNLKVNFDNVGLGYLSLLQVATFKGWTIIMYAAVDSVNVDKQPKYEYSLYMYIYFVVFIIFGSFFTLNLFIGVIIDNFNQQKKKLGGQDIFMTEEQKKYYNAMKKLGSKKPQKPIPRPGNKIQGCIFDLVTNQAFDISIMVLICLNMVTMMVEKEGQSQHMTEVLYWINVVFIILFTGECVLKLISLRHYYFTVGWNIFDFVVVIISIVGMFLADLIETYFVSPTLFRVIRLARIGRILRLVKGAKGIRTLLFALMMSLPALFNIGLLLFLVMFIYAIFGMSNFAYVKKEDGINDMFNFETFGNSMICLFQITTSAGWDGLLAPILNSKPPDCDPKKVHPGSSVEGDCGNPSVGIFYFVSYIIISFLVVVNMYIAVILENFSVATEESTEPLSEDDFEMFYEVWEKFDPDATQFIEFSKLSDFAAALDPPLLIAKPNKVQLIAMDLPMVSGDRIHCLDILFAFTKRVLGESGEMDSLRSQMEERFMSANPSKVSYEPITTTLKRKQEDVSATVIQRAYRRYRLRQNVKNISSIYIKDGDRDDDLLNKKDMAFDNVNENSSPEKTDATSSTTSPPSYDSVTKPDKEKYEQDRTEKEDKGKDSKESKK
Chain of hNav1.3 (Q9NY46 whole entry, looked up): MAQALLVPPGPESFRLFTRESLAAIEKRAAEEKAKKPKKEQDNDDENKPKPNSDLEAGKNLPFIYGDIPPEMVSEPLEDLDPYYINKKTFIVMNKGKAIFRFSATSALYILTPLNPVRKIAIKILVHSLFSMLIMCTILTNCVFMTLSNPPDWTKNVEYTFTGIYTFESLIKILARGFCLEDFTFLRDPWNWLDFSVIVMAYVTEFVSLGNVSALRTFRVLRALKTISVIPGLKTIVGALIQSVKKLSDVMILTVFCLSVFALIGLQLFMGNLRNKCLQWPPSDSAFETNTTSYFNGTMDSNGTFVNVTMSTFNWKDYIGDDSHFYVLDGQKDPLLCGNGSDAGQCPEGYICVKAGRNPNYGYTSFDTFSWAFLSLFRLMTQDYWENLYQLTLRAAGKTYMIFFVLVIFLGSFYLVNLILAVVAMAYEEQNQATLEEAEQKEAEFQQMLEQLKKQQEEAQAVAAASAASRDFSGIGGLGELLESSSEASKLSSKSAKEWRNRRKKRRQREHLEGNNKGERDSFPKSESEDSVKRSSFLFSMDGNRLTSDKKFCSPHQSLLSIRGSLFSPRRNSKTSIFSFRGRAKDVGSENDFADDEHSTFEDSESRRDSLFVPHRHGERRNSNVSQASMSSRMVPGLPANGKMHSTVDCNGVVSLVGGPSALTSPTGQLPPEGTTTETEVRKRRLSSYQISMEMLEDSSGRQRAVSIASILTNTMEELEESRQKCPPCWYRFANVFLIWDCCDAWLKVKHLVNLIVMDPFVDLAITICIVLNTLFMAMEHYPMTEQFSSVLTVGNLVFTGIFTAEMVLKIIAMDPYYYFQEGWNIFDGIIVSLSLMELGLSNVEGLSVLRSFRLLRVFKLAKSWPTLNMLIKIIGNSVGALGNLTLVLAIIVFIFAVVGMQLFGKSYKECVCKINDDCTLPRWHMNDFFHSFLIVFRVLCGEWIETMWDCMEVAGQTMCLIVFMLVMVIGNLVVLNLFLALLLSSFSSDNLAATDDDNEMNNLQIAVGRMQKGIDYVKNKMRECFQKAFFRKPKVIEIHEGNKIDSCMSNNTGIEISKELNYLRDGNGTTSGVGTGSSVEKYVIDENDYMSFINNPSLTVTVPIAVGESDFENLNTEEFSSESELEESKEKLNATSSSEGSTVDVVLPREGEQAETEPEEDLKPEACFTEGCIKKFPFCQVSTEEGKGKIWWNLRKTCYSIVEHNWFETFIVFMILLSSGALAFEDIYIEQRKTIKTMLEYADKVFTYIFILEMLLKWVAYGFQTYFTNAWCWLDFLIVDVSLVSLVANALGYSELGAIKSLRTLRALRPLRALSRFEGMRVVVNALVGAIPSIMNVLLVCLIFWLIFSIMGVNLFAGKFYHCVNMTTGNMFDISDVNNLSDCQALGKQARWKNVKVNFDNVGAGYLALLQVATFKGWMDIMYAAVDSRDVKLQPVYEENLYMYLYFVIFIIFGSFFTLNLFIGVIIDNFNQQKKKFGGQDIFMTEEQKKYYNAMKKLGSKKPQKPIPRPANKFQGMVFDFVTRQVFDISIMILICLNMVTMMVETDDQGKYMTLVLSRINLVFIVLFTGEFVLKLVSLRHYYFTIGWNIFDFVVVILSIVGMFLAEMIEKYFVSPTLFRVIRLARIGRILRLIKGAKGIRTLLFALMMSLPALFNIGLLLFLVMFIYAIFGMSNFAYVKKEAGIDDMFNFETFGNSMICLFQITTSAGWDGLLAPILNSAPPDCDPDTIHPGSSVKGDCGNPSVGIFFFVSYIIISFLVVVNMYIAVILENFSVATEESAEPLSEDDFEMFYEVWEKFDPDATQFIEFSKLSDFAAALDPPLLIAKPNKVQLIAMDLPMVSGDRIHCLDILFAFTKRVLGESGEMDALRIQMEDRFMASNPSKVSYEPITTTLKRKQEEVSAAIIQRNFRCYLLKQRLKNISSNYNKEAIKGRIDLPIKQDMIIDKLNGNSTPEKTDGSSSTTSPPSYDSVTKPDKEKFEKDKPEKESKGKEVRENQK

For `CC[C@H](C)[C@@H]1NC(=O)[C@@H]2CSSC[C@@H]3NC(=O)[C@H](C(C)C)NC(=O)[C@H](CC(C)C)NC(=O)[C@H](CC(N)=O)NC(=O)[C@@H]4CCCN4C(=O)[C@H](CCCNC(=N)N)NC(=O)[C@H](CSSC[C@H](NC(=O)[C@@H](N)CC(=O)O)C(=O)N[C@@H](CC(C)C)C(=O)NCC(=O)N[C@@H](CCC(C)C)C(=O)N[C@@H](Cc4ccccc4)C(=O)N[C@@H](CCCNC(=N)N)C(=O)N[C@@H](CCCCN)C(=O)N2)NC(=O)[C@H](CSSC[C@@H](C(=O)N[C@@H](CCCCN)C(=O)N[C@@H](Cc2ccc(O)cc2)C(=O)N[C@H](C(=O)N[C@@H](Cc2ccccc2)C(N)=O)C(C)C)NC(=O)[C@H](Cc2c[nH]c4ccccc24)NC(=O)[C@H](CCCCN)NC(=O)[C@H](Cc2c[nH]cn2)NC(=O)[C@H]([C@@H](C)O)NC(=O)[C@H](CCCNC(=N)N)NC(=O)[C@H](CO)NC3=O)NC(=O)[C@H](CCCCN)NC(=O)[C@H](CC(=O)O)NC(=O)[C@H](CC(N)=O)NC(=O)[C@H](CC(=O)O)NC(=O)[C@@H]2CCCN2C1=O` [compound 610] (H-DCLG[hLeu]FRKCIPDNDKCCRPNLVCSRTHKWCKYVF-NH2; disulfide 2-17, 9-23, 16-30), the IC50 on hNav1.7 (use-dependent block) came to 0.011 µM; on hNav1.3 (use-dependent block), 0.041 µM; at hNav1.5 (use-dependent block) it was 8.2 µM.
As to `CC[C@H](C)[C@@H]1NC(=O)[C@@H]2CSSC[C@@H]3NC(=O)[C@H](C(C)C)NC(=O)[C@H](CC(C)C)NC(=O)[C@H](CC(N)=O)NC(=O)[C@@H]4CCCN4C(=O)[C@H](CCCNC(=N)N)NC(=O)[C@H](CSSC[C@H](NC(=O)[C@@H](N)CC(=O)O)C(=O)N[C@@H](CC(C)C)C(=O)NCC(=O)N[C@@H](CCSC)C(=O)N[C@@H](Cc4ccccc4)C(=O)N[C@@H](CCCNC(=N)N)C(=O)N[C@@H](CCCCN)C(=O)N2)NC(=O)[C@H](CSSC[C@@H](C(=O)N[C@@H](CCCCN)C(=O)N[C@@H](Cc2ccc(O)cc2)C(=O)N[C@H](C(=O)N[C@@H](Cc2ccccc2)C(N)=O)C(C)C)NC(=O)[C@H](Cc2c[nH]c4ccccc24)NC(=O)[C@H](CCCCN)NC(=O)[C@H](Cc2c[nH]cn2)NC(=O)[C@H]([C@@H](C)O)NC(=O)[C@H](CCCNC(=N)N)NC(=O)[C@H](CO)NC3=O)NC(=O)[C@H](CCCCN)NC(=O)[C@H](CC(=O)O)NC(=O)[C@H](CC(N)=O)NC(=O)[C@H](CC(=O)O)NC(=O)[C@@H]2CCCN2C1=O` [compound 611] (H-DCLGMFRKCIPDNDKCCRPNLVCSRTHKWCKYVF-NH2; disulfide 2-17, 9-23, 16-30), the results for the IC50 at hNav1.7 (use-dependent block), on hNav1.3 (use-dependent block) and at hNav1.5 (use-dependent block) were 0.043 µM, 0.11 µM and 13.3 µM, respectively.
Take `CC[C@H](C)[C@@H]1NC(=O)[C@@H]2CSSC[C@@H]3NC(=O)[C@H](C(C)C)NC(=O)[C@H](CC(C)C)NC(=O)[C@H](CC(N)=O)NC(=O)[C@@H]4CCCN4C(=O)[C@H](CCCNC(=N)N)NC(=O)[C@H](CSSC[C@H](NC(=O)[C@@H](N)CC(=O)O)C(=O)N[C@@H](CC(C)C)C(=O)NCC(=O)N[C@@H](CC(C)C)C(=O)N[C@@H](Cc4ccccc4)C(=O)N[C@@H](CCCNC(=N)N)C(=O)N[C@@H](CCCCN)C(=O)N2)NC(=O)[C@H](CSSC[C@@H](C(=O)N[C@@H](CCCCN)C(=O)N[C@@H](Cc2ccc(O)cc2)C(=O)N[C@H](C(=O)N[C@@H](Cc2ccccc2)C(N)=O)C(C)C)NC(=O)[C@H](Cc2c[nH]c4ccccc24)NC(=O)[C@H](CCCCN)NC(=O)[C@H](Cc2c[nH]cn2)NC(=O)[C@H]([C@@H](C)O)NC(=O)[C@H](CCCNC(=N)N)NC(=O)[C@H](CO)NC3=O)NC(=O)[C@H](CCCCN)NC(=O)[C@H](CC(=O)O)NC(=O)[C@H](CC(N)=O)NC(=O)[C@H](CC(=O)O)NC(=O)[C@@H]2CCCN2C1=O` [compound 612] (H-DCLGLFRKCIPDNDKCCRPNLVCSRTHKWCKYVF-NH2; disulfide 2-17, 9-23, 16-30): the IC50 came to 0.057 µM on hNav1.7 (use-dependent block), 0.22 µM at hNav1.3 (use-dependent block) and 20.1 µM on hNav1.5 (use-dependent block).
For `CC[C@H](C)[C@@H]1NC(=O)[C@@H]2CSSC[C@@H]3NC(=O)[C@H](C(C)C)NC(=O)[C@H](CC(C)C)NC(=O)[C@H](CC(N)=O)NC(=O)[C@@H]4CCCN4C(=O)[C@H](CCCNC(=N)N)NC(=O)[C@H](CSSC[C@H](NC(=O)[C@@H](N)CC(=O)O)C(=O)N[C@@H](CC(C)C)C(=O)NCC(=O)N[C@@H](Cc4cccnc4)C(=O)N[C@@H](Cc4ccccc4)C(=O)N[C@@H](CCCNC(=N)N)C(=O)N[C@@H](CCCCN)C(=O)N2)NC(=O)[C@H](CSSC[C@@H](C(=O)N[C@@H](CCCCN)C(=O)N[C@@H](Cc2ccc(O)cc2)C(=O)N[C@H](C(=O)N[C@@H](Cc2ccccc2)C(N)=O)C(C)C)NC(=O)[C@H](Cc2c[nH]c4ccccc24)NC(=O)[C@H](CCCCN)NC(=O)[C@H](Cc2c[nH]cn2)NC(=O)[C@H]([C@@H](C)O)NC(=O)[C@H](CCCNC(=N)N)NC(=O)[C@H](CO)NC3=O)NC(=O)[C@H](CCCCN)NC(=O)[C@H](CC(=O)O)NC(=O)[C@H](CC(N)=O)NC(=O)[C@H](CC(=O)O)NC(=O)[C@@H]2CCCN2C1=O` [compound 613] (H-DCLG[3Pal]FRKCIPDNDKCCRPNLVCSRTHKWCKYVF-NH2; disulfide 2-17, 9-23, 16-30), the IC50 amounted to 0.95 µM on hNav1.7 (use-dependent block), 3.6 µM on hNav1.3 (use-dependent block) and 18.7 µM at hNav1.5 (use-dependent block).
For `CC[C@H](C)[C@@H]1NC(=O)[C@@H]2CSSC[C@@H]3NC(=O)[C@H](C(C)C)NC(=O)[C@H](CC(C)C)NC(=O)[C@H](CC(N)=O)NC(=O)[C@@H]4CCCN4C(=O)[C@H](CCCNC(=N)N)NC(=O)[C@H](CSSC[C@H](NC(=O)[C@@H](N)CC(=O)O)C(=O)N[C@@H](CC(C)C)C(=O)NCC(=O)N[C@@H](Cc4cccs4)C(=O)N[C@@H](Cc4ccccc4)C(=O)N[C@@H](CCCNC(=N)N)C(=O)N[C@@H](CCCCN)C(=O)N2)NC(=O)[C@H](CSSC[C@@H](C(=O)N[C@@H](CCCCN)C(=O)N[C@@H](Cc2ccc(O)cc2)C(=O)N[C@H](C(=O)N[C@@H](Cc2ccccc2)C(N)=O)C(C)C)NC(=O)[C@H](Cc2c[nH]c4ccccc24)NC(=O)[C@H](CCCCN)NC(=O)[C@H](Cc2c[nH]cn2)NC(=O)[C@H]([C@@H](C)O)NC(=O)[C@H](CCCNC(=N)N)NC(=O)[C@H](CO)NC3=O)NC(=O)[C@H](CCCCN)NC(=O)[C@H](CC(=O)O)NC(=O)[C@H](CC(N)=O)NC(=O)[C@H](CC(=O)O)NC(=O)[C@@H]2CCCN2C1=O` [compound 614] (H-DCLG[2Thi]FRKCIPDNDKCCRPNLVCSRTHKWCKYVF-NH2; disulfide 2-17, 9-23, 16-30), in that order: 0.012 µM, 0.077 µM and 4.1 µM.
Turning to `CC[C@H](C)[C@@H]1NC(=O)[C@@H]2CSSC[C@@H]3NC(=O)[C@H](C(C)C)NC(=O)[C@H](CC(C)C)NC(=O)[C@H](CC(N)=O)NC(=O)[C@@H]4CCCN4C(=O)[C@H](CCCNC(=N)N)NC(=O)[C@H](CSSC[C@H](NC(=O)[C@@H](N)CC(=O)O)C(=O)N[C@@H](CC(C)C)C(=O)NCC(=O)N[C@@H](C4CCCC4)C(=O)N[C@@H](Cc4ccccc4)C(=O)N[C@@H](CCCNC(=N)N)C(=O)N[C@@H](CCCCN)C(=O)N2)NC(=O)[C@H](CSSC[C@@H](C(=O)N[C@@H](CCCCN)C(=O)N[C@@H](Cc2ccc(O)cc2)C(=O)N[C@H](C(=O)N[C@@H](Cc2ccccc2)C(N)=O)C(C)C)NC(=O)[C@H](Cc2c[nH]c4ccccc24)NC(=O)[C@H](CCCCN)NC(=O)[C@H](Cc2c[nH]cn2)NC(=O)[C@H]([C@@H](C)O)NC(=O)[C@H](CCCNC(=N)N)NC(=O)[C@H](CO)NC3=O)NC(=O)[C@H](CCCCN)NC(=O)[C@H](CC(=O)O)NC(=O)[C@H](CC(N)=O)NC(=O)[C@H](CC(=O)O)NC(=O)[C@@H]2CCCN2C1=O` [compound 615] (H-DCLG[Gly(cPent)]FRKCIPDNDKCCRPNLVCSRTHKWCKYVF-NH2; disulfide 2-17, 9-23, 16-30), the IC50 on hNav1.7 (use-dependent protocol) amounted to 0.035 µM; at hNav1.3 (use-dependent protocol) it was 0.12 µM; on hNav1.5 (use-dependent protocol), 5.6 µM.
The corresponding values for `CC[C@H](C)[C@@H]1NC(=O)[C@@H]2CSSC[C@@H]3NC(=O)[C@H](C(C)C)NC(=O)[C@H](CC(C)C)NC(=O)[C@H](CC(N)=O)NC(=O)[C@@H]4CCCN4C(=O)[C@H](CCCNC(=N)N)NC(=O)[C@H](CSSC[C@H](NC(=O)[C@@H](N)CC(=O)O)C(=O)N[C@@H](CC(C)C)C(=O)NCC(=O)N[C@@H](C4CCCCC4)C(=O)N[C@@H](Cc4ccccc4)C(=O)N[C@@H](CCCNC(=N)N)C(=O)N[C@@H](CCCCN)C(=O)N2)NC(=O)[C@H](CSSC[C@@H](C(=O)N[C@@H](CCCCN)C(=O)N[C@@H](Cc2ccc(O)cc2)C(=O)N[C@H](C(=O)N[C@@H](Cc2ccccc2)C(N)=O)C(C)C)NC(=O)[C@H](Cc2c[nH]c4ccccc24)NC(=O)[C@H](CCCCN)NC(=O)[C@H](Cc2c[nH]cn2)NC(=O)[C@H]([C@@H](C)O)NC(=O)[C@H](CCCNC(=N)N)NC(=O)[C@H](CO)NC3=O)NC(=O)[C@H](CCCCN)NC(=O)[C@H](CC(=O)O)NC(=O)[C@H](CC(N)=O)NC(=O)[C@H](CC(=O)O)NC(=O)[C@@H]2CCCN2C1=O` [compound 616] (H-DCLG[Chg]FRKCIPDNDKCCRPNLVCSRTHKWCKYVF-NH2; disulfide 2-17, 9-23, 16-30) are 0.023 µM, 0.075 µM and 6.9 µM.
